Measured values from the supplement of paper PMC10307832.

Key:
Test in all cases: relative viability (nuclei count vs DMSO), 5 days (fraction); higher = more cells survive
YM155 + Luminespib = compound: COCC[n+]1c2c(n(Cc3cnccn3)c1C)C(=O)c1ccccc1C2=O [YM155] + CCNC(=O)c1noc(-c2cc(C(C)C)c(O)cc2O)c1-c1ccc(CN2CCOCC2)cc1 [Luminespib] (partner 0.01 µM)
Procedure, shortened: (§1)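 The day after seeding in 1536-well plates, lung cancer cell lines were treated by pin tool with a single drug, or with a fixed anchor-drug dose together with five library-drug doses (not always all listed) in √10 steps. After 5 days, a combined fix-and-stain solution (final 0.05% Triton X-100, 1% formaldehyde, 1 ug/ml Hoechst) was added. Nuclei counted on 4× images gave relative viability as treated counts over vehicle counts, reported as the median of duplicate plates.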

Quizartinib + Lapatinib = compound: CC(C)(C)c1cc(NC(=O)Nc2ccc(-c3cn4c(n3)sc3cc(OCCN5CCOCC5)ccc34)cc2)no1 [Quizartinib] + CS(=O)(=O)CCNCc1ccc(-c2ccc3ncnc(Nc4ccc(OCc5cccc(F)c5)c(Cl)c4)c3c2)o1 [Lapatinib] (partner 2 µM)
Procedure, shortened: as §1

YM155 + Palbociclib = compound: COCC[n+]1c2c(n(Cc3cnccn3)c1C)C(=O)c1ccccc1C2=O [YM155] + CC(=O)c1c(C)c2cnc(Nc3ccc(N4CCNCC4)cn3)nc2n(C2CCCC2)c1=O [Palbociclib] (partner 0.5 µM)
Procedure, shortened: as §1

YM155 + Phenformin = compound: COCC[n+]1c2c(n(Cc3cnccn3)c1C)C(=O)c1ccccc1C2=O [YM155] + N=C(N)NC(=N)NCCc1ccccc1 [Phenformin] (partner 250 µM)
Procedure, shortened: as §1

Row | Cell Line | relative viability (YM155 + Luminespib; first compound 0.002 µM) | relative viability (YM155 + Luminespib; first compound 0.006325 µM) | relative viability (YM155 + Luminespib; first compound 0.02 µM) | relative viability (YM155 + Luminespib; first compound 0.06325 µM) | relative viability (Quizartinib + Lapatinib; first compound 0.001 µM) | relative viability (Quizartinib + Lapatinib; first compound 0.003162 µM) | relative viability (Quizartinib + Lapatinib; first compound 0.01 µM) | relative viability (Quizartinib + Lapatinib; first compound 0.03162 µM) | relative viability (Quizartinib + Lapatinib; first compound 0.1 µM) | relative viability (YM155 + Palbociclib; first compound 0.002 µM) | relative viability (YM155 + Palbociclib; first compound 0.006325 µM) | relative viability (YM155 + Palbociclib; first compound 0.02 µM) | relative viability (YM155 + Palbociclib; first compound 0.06325 µM) | relative viability (YM155 + Phenformin; first compound 0.002 µM) | relative viability (YM155 + Phenformin; first compound 0.006325 µM) | relative viability (YM155 + Phenformin; first compound 0.02 µM) | relative viability (YM155 + Phenformin; first compound 0.06325 µM)
1 | NCI-H2009 | 1.08 | 0.986 | 1.04 | 0.476 | 0.141 | 0.865 | 0.884 | 0.695 | 0.93 | 0.215 | 0.189 | 0.318 | 0.166 | 0.464 | 0.489 | 0.46 | 0.326
2 | NCI-H2023 | 0.771 | 0.678 | 0.682 | 0.349 | 0.0985 | 0.819 | 0.737 | 0.293 | 0.846 | 0.384 | 0.423 | 0.21 | 0.105 | 0.361 | 0.403 | 0.411 | 0.422
3 | NCI-H2085 | 0.406 | 0.474 | 0.338 | 0.369 | 0.733 | 0.769 | 0.851 | 0.809 | 0.742 | 0.436 | 0.441 | 0.469 | 0.375 | 0.782 | 0.835 | 0.847 | 0.725
4 | NCI-H2087 | 0.194 | 0.17 | 0.148 | 0.149 | 0.665 | 0.906 | 1 | 1.09 | 0.935 | 0.207 | 0.247 | 0.256 | 0.208 | 0.476 | 0.448 | 0.498 | 0.495
5 | NCI-H2126 | 0.804 | 0.969 | 0.94 | 0.927 | 0.704 | 0.705 | 0.744 | 0.801 | 0.863 | 0.354 | 0.369 | 0.369 | 0.369 | 0.508 | 0.597 | 0.555 | 0.522
6 | NCI-H2170 | 0.525 | 0.751 | 0.647 | 0.596 | 0.257 | 0.273 | 0.253 | 0.262 | 0.272 | 0.418 | 0.473 | 0.389 | 0.376 | 0.416 | 0.4 | 0.413 | 0.408
7 | NCI-H2228 | 0.16 | 0.148 | 0.104 | 0.144 | 1.11 | 1.1 | 1.47 | 0.764 | 1 | 0.573 | 0.69 | 0.752 | 0.714 | 0.304 | 0.272 | 0.375 | 0.338
8 | NCI-H2347 | 0.409 | 0.41 | 0.647 | 0.368 | 0.604 | 0.923 | 0.94 | 1.03 | 1.1 | 0.422 | 0.399 | 0.389 | 0.37 | 0.489 | 0.395 | 0.582 | 0.448
9 | NCI-H2405 | 0.65 | 0.778 | 0.639 | 0.393 | 1.11 | 1.16 | 0.969 | 0.934 | 1.3 | 0.515 | 0.508 | 0.424 | 0.269 | 0.383 | 0.39 | 0.423 | 0.404
10 | NCI-H3122 | 0.0874 | 0.123 | 0.0877 | 0.0824 | 1.08 | 0.903 | 1.04 | 1.05 | 1.04 | 0.184 | 0.178 | 0.218 | 0.171 | 0.362 | 0.36 | 0.384 | 0.364
11 | PC-3 [JPC-3] | 0.654 | 0.732 | 0.673 | 0.653 | 0.416 | 0.472 | 0.471 | 0.481 | 0.415 | 0.526 | 0.565 | 0.571 | 0.52 | 0.454 | 0.521 | 0.475 | 0.473
12 | PC-14 | 0.171 | 0.174 | 0.111 | 0.143 | 0.271 | 0.322 | 0.306 | 0.333 | 0.337 | 0.477 | 0.447 | 0.476 | 0.278 | 0.485 | 0.708 | 0.668 | 0.554
13 | RERF-LC-KJ | 1.14 | 1 | 1.18 | 1.15 | 0.883 | 0.766 | 0.864 | 0.864 | 0.777 | 1.09 | 1.1 | 1.02 | 0.985 | 0.386 | 0.432 | 0.462 | 0.463
14 | SK-LU-1 | 0.183 | 0.185 | 0.21 | 0.223 | 0.704 | 0.867 | 1.3 | 0.774 | 0.725 | 0.405 | 0.495 | 0.404 | 0.412 | 0.487 | 0.499 | 0.566 | 0.588
15 | SK-MES-1 | 0.437 | 0.359 | 0.234 | 0.169 | 0.464 | 0.428 | 0.421 | 0.428 | 0.442 | 0.312 | 0.357 | 0.225 | 0.191 | 0.584 | 0.695 | 0.575 | 0.256
16 | SW 1573 | 0.246 | 0.179 | 0.17 | 0.0748 | 1.03 | 1.09 | 1.24 | 1.01 | 1.21 | 0.415 | 0.314 | 0.126 | 0.0609 | 0.365 | 0.305 | 0.394 | 0.338
17 | UMC-11 | 0.932 | 1.08 | 1 | 1.11 | 0.499 | 0.945 | 1.14 | 0.889 | 1.02 | 0.327 | 0.356 | 0.336 | 0.33 | 0.3 | 0.355 | 0.363 | 0.328
